Like-named read-outs stand apart in the source and are kept apart here.
Key:
[1] = system: PDE4; experiment: PDE4 inhibition, scintillation proximity assay (SPA); assay type: biochemical
Method in brief: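 Scintillation proximity read-out: [2,8-3H]-cAMP hydrolysis by PDE4 ran 120 min at room temperature in Tris-HCl pH 7.4 buffer with 8.3 mM MgCl2, 1.7 mM EGTA and 3 mg/mL BSA. Bead-bound product (YSi-SPA with ZnSO4, 15 min) counted; blank lacks enzyme, control has DMSO only.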

[2] = Hepatic metabolic stability (rat liver microsome method); assay type: in vitro ADME; settings: rat liver microsomes 0.5 mg/mL, test substance 1 μM, NADPH 1 mM, 37° C., 30 minutes
Protocol: Metabolic stability in rat liver microsomes was evaluated by the following method. In 100 mM of potassium phosphate buffer solution (pH 7.4), liver microsomes (concentration at reaction: 0.5 mg/mL) and the test substance (concentration at reaction: 1 μM) were preincubated at 37° C. Five minutes later, 100 mM of potassium phosphate buffer (pH 7.4) solution of NADPH (concentration at reaction: 1 mM) was mixed thereto to start the reaction. After a predetermined time passed, acetonitrile was mixed to the reaction mixture to stop the reaction. Here, the reaction time was 0 and 30 minutes, and drug concentration measurement was performed for each time period using LC-MS. The % remaining value of the test compound was calculated from the value for 0 minutes and the value for 30 minutes, using the calculation formula below: % Remaining=(Value for 30 Minutes/Value for 0 Minutes)×100
The results of measuring the rat liver microsome metabolic Stability (% remaining for 30-minute reaction) for the test compound by the above method were evaluated in accordance with the following evaluated basis; A: a % remaining rate of 75% or more, B: 60% or more and less than 75%, C: 45% or more and less than 60%, and D: less than 45%.

[3] = scintillation proximity assay, class symbols, read-out: PDE4 Inhibitory Activity
[4] = scintillation proximity assay (SPA), evaluated as classes A, B, C, read-out: PDE4 Inhibitory Activity (concentration for the inhibition rate of 50%)

SMILES	IC50 [1, 3]	Residual ratio (% remaining for 30-minute reaction) [2]	IC50 [1, 4]
Cn1ccc(-c2ccc(OC(F)(F)C(C)(C)O)c3nc(N4CC5CCC(C4)N5)oc23)n1 [Example 328, 1-((2-(3,8-Diazabicyclo[3.2.1]octan-3-yl)-7-(1-methyl-1H-pyrazol-3-yl)benzo[d]oxazol-4-yl)oxy)-1,1-difluoro-2-methylpropan-2-ol]	< 100 nM	A (a % remaining rate of 75% or more)	–
CC(C)(O)C(F)(F)Oc1ccc(-c2ccc(F)cn2)c2oc(N3CC4CC(C3)N4)nc12 [Example 329, 1-((2-(3,6-Diazabicyclo[3.1.1]heptan-3-yl)-7-(5-fluoropyridin-2-yl)benzo[d]oxazol-4-yl)oxy)-1,1-difluoro-2-methylpropan-2-ol]	< 100 nM	A (a % remaining rate of 75% or more)	–
c1ccc(Oc2ccc(-c3nccs3)c3oc(N4CC5CC(C4)N5)nc23)nc1 [Example 337, 2-(3,6-diazabicyclo [3.1.1]heptan-3-yl)-4-(pyridin-2-yloxy)-7-(thiazol-2-yl)benzo[d] oxazole]	< 100 nM	B (60% or more and less than 75%)	–
Cc1cc(C(F)(F)F)c(Oc2ccc(-c3nccs3)c3oc(N4CC5CC(C4)N5)nc23)nn1 [Example 340, 2-(3,6-diazabicyclo[3.1.1]heptan-3-yl)-4-((6-methyl-4-(trifluoro-methyl)pyridazin-3-yl)oxy)-7-(thiazol-2-yl)benzo[d] oxazole]	< 100 nM	A (a % remaining rate of 75% or more)	–
O=C(NCCO)c1ccc(-c2nccs2)c2oc(N3CC4CC(C3)N4)nc12 [Example 355, 2-(3,6-diazabicyclo [3.1.1]heptan-3-yl)-N-(2-hydroxyethyl)-7-(thiazol-2-yl) benzo[d] oxazole-4-carboxamide]	< 100 nM	A (a % remaining rate of 75% or more)	–
FC(F)(F)Oc1c(Cl)cc(-n2cccn2)c2oc(N3CC4CCC(C3)N4)nc12 [Example 5, 2-(3,8-Diazabicyclo[3.2.1]octan-3-yl)-5-chloro-7-(1H-pyrazol-1-yl)-4-(trifluoromethoxy)benzo[d]oxazole]	–	B (60% or more and less than 75%)	< 100 nM
OCc1ccc(Oc2ccc(-c3nccs3)c3oc(N4CC5CC(C4)N5)nc23)nc1 [Example 341, (6-((2-(3,6-diazabicyclo[3.1.1]heptan-3-yl)-7-(thiazol-2-yl)benzo[d]oxazol-4-yl)oxy)pyridin-3-yl)methanol]	< 100 nM	A (a % remaining rate of 75% or more)	–
OCC(F)(F)Oc1ccc(-c2ccc(F)cn2)c2oc(N3CC4CC(C3)N4)nc12 [Example 319, 2-((2-(3,6-Diazabicyclo[3.1.1]heptan-3-yl)-7-(5-fluoropyridin-2-yl)benzo[d]oxazol-4-yl)oxy)-2,2-difluoroethan-1-ol]	–	A (a % remaining rate of 75% or more)	< 100 nM
FC(F)(F)c1c(Cl)cc(-c2ccccn2)c2oc(N3CC4CCCC(C3)N4)nc12 [Example 12, 2-(3,9-Diazabicyclo[3.3.1]nonan-3-yl)-5-chloro-7-(pyridin-2-yl)-4-(trifluoromethyl)benzo[d]oxazole]	–	B (60% or more and less than 75%)	< 100 nM
OCC(F)(F)Oc1c(Cl)cc(-c2nccs2)c2oc(N3CC4CC(C3)N4)nc12 [Example 401, 2-((2-(3,6-diazabicyclo [3.1.1]heptan-3-yl)-5-chloro-7-(thiazol-2-yl)benzo[d]oxazol-4-yl)oxy)-2,2-difluoroethan-1-ol]	< 100 nM	A (a % remaining rate of 75% or more)	–
Cc1nsc(-c2ccc(OC(F)(F)C(C)(C)O)c3nc(N4CC5CCC(C4)N5)oc23)n1 [Example 333, 1-((2-(3,8-diazabicyclo [3.2.1]octan-3-yl)-7-(3-methyl-1,2,4-thiadiazol-5-yl)benzo[d]oxazol-4-yl)oxy)-1,1-difluoro-2-methylpropan-2-ol]	100 to 1000 nM	B (60% or more and less than 75%)	–
OCCSc1ccc(-c2nccs2)c2oc(N3CC4CC(C3)N4)nc12 [Example 348, 2-((2-(3,6-diazabicyclo[3.1.1]heptan-3-yl)-7-(thiazol-2-yl)benzo [d]oxazol-4-yl)thio) ethan-1-ol]	< 100 nM	B (60% or more and less than 75%)	–
COCCNS(=O)(=O)c1ccc(-c2nccs2)c2oc(N3CC4CC(C3)N4)nc12 [Example 387, 2-(3,6-diazabicyclo[3.1.1]heptan-3-yl)-N-(2-methoxyethyl)-7-(thiazol-2-yl)benzo [d]oxazole-4-sulfonamide]	< 100 nM	A (a % remaining rate of 75% or more)	–
OCc1cnc(Oc2ccc(-c3nccs3)c3oc(N4CC5CC(C4)N5)nc23)c(C(F)(F)F)c1 [Example 342, (6-((2-(3,6-diazabicyclo[3.1.1]heptan-3-yl)-7-(thiazol-2-yl)benzo[d]oxazol-4-yl)oxy)-5-(trifluoromethyl)pyridin-3-yl) methanol]	< 100 nM	B (60% or more and less than 75%)	–
CC(C)(O)C(F)(F)Oc1ccc(-c2ccc(F)cn2)c2oc(N3CC4CCC(C3)N4)nc12 [Example 332, 1-((2-(3,8-diazabicyclo [3.2.1]octan-3-yl)-7-(5-fluoropyridin-2-yl)benzo[d]oxazol-4-yl)oxy)-1,1-difluoro-2-methylpropan-2-ol]	< 100 nM	A (a % remaining rate of 75% or more)	–
OC1CCN(c2ccc(-c3nccs3)c3oc(N4CC5CC(C4)N5)nc23)CC1 [Example 397, 1-(2-(3,6-diazabicyclo[3.1.1]heptan-3-yl)-7-(thiazol-2-yl)benzo [d]oxazol-4-yl) piperidin-4-ol]	< 100 nM	A (a % remaining rate of 75% or more)	–
CC(C)(O)C(F)(F)Oc1ccc(-c2ccc(Cl)cn2)c2oc(N3CC4CC(C3)N4)nc12 [Example 363, 1-((2-(3,6-diazabicyclo [3.1.1]heptan-3-yl)-7-(5-chloropyridin-2-yl)benzo[d]oxazol-4-yl)oxy)-1,1-difluoro-2-methyl-propan-2-ol]	< 100 nM	A (a % remaining rate of 75% or more)	–
O=S(=O)(c1ccc(-c2nccs2)c2oc(N3CC4CC(C3)N4)nc12)C(F)(F)F [Example 334, 2-(3,6-diazabicyclo [3.1.1]heptan-3-yl)-7-(thiazol-2-yl)-4-((trifluoromethyl)sulfonyl) benzo[d]oxazole]	< 100 nM	B (60% or more and less than 75%)	–
CC(C)(O)C(F)(F)Oc1ccc(-c2ncco2)c2oc(N3CC4CCC(C3)N4)nc12 [Example 321, 1-((2-(3,8-Diazabicyclo[3.2.1]octan-3-yl)-7-(oxazol-2-yl)benzo[d]oxazol-4-yl)oxy)-1,1-difluoro-2-methylpropan-2-ol]	–	A (a % remaining rate of 75% or more)	< 100 nM
CS(=O)(=O)c1ccc(Oc2ccc(-c3nccs3)c3oc(N4CC5CC(C4)N5)nc23)nc1 [Example 352, 2-(3,6-diaza-bicyclo[3.1.1]heptan-3-yl)-4-((5-(methylsulfonyl)pyridin-2-yl)oxy)-7-(thiazol-2-yl)benzo [d]oxazole]	< 100 nM	A (a % remaining rate of 75% or more)	–

From US10669283B2, “Compound and pharmacologically acceptable salt thereof” (MEIJI SEIKA PHARMA CO., LTD., priority 2016, dated 2020)
